In publication PMC11345841, “Exploring 2-Sulfonylpyrimidine Warheads as Acrylamide Surrogates for Targeted Covalent Inhibition: A BTK Story” (Journal of Medicinal Chemistry, 2024):
Like-named read-outs stand apart in the source and are kept apart here.

Key:
Assay in all cases: KINOMEscan ScanTK
Type in all cases: binding
[1] = target: T1, ABL1(H396P)-nonphosphorylated (Homo sapiens, UniProt P00519, H396P)
T1 construct: purchased Eurofins DiscoverX KINOMEscan (scanTK)

ABL1-phosphorylated = target: T2, ABL1-phosphorylated (Homo sapiens, UniProt P00519)
T2 construct: purchased Eurofins DiscoverX KINOMEscan (scanTK)

CSF1R-autoinhibited = target: T3, CSF1R-autoinhibited (Homo sapiens, UniProt P07333)
T3 construct: purchased Eurofins DiscoverX KINOMEscan (scanTK)
T3 sequence (P07333 539-972 limits assumed): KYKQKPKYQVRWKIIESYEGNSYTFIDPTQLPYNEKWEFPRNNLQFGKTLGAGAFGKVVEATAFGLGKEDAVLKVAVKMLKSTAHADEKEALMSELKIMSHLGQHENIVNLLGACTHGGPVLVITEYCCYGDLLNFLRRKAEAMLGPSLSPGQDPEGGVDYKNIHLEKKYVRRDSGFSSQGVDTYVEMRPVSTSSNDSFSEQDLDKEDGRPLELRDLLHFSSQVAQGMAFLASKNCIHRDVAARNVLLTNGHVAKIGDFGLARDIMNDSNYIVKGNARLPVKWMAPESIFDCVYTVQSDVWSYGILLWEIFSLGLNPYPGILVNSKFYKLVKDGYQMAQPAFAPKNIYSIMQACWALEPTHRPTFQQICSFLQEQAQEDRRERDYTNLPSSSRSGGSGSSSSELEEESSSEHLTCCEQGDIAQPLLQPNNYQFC

CTK = target: T4, CTK (Homo sapiens, UniProt P42679)
T4 construct: purchased Eurofins DiscoverX KINOMEscan (scanTK)
T4 sequence (P42679 1-507): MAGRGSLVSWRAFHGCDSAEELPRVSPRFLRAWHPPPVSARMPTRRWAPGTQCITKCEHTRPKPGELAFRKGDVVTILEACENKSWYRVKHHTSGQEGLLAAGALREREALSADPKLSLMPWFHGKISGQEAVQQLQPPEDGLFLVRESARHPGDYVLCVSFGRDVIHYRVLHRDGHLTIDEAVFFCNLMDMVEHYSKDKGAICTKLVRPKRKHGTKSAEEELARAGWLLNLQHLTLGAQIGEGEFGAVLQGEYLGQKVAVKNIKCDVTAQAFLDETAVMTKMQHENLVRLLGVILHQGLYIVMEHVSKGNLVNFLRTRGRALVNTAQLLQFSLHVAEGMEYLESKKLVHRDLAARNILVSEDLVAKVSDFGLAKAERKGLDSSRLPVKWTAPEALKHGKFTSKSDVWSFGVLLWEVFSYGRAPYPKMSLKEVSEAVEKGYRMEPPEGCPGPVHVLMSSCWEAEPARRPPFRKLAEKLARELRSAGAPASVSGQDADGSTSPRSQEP

EPHA1 = target: T5, EPHA1 (Homo sapiens, UniProt P21709)
T5 construct: purchased Eurofins DiscoverX KINOMEscan (scanTK)
T5 sequence (P21709 26-976): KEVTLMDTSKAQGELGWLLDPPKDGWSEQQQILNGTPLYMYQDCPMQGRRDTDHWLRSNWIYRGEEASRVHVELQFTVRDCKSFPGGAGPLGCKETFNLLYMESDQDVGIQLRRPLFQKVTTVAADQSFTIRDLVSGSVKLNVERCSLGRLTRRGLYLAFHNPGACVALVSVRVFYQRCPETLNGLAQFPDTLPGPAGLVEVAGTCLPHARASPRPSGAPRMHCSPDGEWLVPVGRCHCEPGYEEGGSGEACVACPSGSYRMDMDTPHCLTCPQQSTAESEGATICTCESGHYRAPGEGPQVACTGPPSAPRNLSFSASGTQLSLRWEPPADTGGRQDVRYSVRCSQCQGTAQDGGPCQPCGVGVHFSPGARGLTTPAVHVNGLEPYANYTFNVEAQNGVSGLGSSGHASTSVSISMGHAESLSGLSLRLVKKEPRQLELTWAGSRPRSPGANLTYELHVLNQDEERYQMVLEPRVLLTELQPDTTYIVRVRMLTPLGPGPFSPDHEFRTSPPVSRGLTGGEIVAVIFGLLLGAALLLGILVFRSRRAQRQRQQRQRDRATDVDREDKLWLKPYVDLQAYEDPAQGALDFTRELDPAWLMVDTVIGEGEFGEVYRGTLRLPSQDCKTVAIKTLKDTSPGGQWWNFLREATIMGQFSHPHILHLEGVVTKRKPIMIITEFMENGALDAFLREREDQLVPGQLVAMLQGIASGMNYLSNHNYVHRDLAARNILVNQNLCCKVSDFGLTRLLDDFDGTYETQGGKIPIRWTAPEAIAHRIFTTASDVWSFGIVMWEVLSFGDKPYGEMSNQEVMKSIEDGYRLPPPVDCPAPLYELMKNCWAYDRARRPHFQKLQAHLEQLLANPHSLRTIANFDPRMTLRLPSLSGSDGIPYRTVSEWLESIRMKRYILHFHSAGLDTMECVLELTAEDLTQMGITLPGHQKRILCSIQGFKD

IGF1R = target: T6, IGF1R (Homo sapiens, UniProt P08069)
T6 construct: purchased Eurofins DiscoverX KINOMEscan (scanTK)
T6 sequence (P08069 31-1367): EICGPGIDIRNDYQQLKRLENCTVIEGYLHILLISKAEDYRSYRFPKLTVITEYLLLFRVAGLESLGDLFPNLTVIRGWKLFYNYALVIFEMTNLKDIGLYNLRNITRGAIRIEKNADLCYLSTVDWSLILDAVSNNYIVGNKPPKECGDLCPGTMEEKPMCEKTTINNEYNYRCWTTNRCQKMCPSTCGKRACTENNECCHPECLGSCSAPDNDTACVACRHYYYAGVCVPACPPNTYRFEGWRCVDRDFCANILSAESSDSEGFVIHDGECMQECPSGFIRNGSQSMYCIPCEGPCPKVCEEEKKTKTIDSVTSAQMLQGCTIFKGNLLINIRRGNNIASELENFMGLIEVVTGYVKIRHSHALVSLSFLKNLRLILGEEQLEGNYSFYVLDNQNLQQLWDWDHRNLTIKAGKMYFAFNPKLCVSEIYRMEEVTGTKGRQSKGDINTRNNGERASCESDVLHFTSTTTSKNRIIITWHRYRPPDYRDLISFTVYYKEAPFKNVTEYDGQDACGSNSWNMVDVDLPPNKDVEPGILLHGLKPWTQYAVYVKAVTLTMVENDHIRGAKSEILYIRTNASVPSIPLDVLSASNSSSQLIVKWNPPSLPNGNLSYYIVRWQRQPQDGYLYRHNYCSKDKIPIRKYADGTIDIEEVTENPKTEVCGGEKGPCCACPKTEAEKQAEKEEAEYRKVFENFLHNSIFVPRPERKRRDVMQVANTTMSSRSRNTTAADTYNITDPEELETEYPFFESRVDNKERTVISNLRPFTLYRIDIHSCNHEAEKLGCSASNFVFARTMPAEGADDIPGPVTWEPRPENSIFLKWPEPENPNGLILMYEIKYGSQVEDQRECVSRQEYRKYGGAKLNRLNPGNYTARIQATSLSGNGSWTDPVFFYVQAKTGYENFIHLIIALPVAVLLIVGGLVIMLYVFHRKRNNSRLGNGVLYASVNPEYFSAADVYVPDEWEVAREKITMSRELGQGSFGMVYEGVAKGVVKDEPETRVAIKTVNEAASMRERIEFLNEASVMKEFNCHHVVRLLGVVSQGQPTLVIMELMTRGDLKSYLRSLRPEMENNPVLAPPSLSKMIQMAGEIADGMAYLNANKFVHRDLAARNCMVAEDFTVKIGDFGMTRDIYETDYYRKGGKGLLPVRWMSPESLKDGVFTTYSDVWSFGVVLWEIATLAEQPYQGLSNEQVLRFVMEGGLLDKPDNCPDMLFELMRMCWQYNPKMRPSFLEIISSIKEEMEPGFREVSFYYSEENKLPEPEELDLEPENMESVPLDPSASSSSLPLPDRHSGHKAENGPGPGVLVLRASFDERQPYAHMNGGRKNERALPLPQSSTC

SMILES | difference in %Control versus compound Ib at 1 µM ([1]; @1000nM) | remaining binding at 1 µM ([1]; @1000nM, read-out: %Control) | remaining binding at 1 µM ([1]; read-out: %Control @1000nM) | difference in %Control from compound Ib at 1 µM (ABL1-phosphorylated; @1000nM) | remaining binding at 1 µM (ABL1-phosphorylated; @1000nM, read-out: %Control) | remaining binding at 1 µM (ABL1-phosphorylated; read-out: %Control @1000nM) | difference in %Control versus compound Ib at 1 µM (CSF1R-autoinhibited; @1000nM) | remaining binding at 1 µM (CSF1R-autoinhibited; @1000nM, read-out: %Control) | remaining binding at 1 µM (CSF1R-autoinhibited; read-out: %Control @1000nM) | difference in %Control versus compound Ib at 1 µM (CTK; @1000nM) | remaining binding at 1 µM (CTK; @1000nM, read-out: %Control) | remaining binding at 1 µM (CTK; read-out: %Control @1000nM) | difference in %Control versus compound Ib at 1 µM (EPHA1; @1000nM) | remaining binding at 1 µM (EPHA1; @1000nM, read-out: %Control) | remaining binding at 1 µM (EPHA1; read-out: %Control @1000nM) | % Control difference from reference compound Ib at 1 µM (IGF1R; @1000nM) | remaining binding at 1 µM (IGF1R; @1000nM, read-out: %Control) | remaining binding at 1 µM (IGF1R; read-out: %Control @1000nM)
CNC(=O)c1cnc(S(C)(=O)=O)nc1N1CCCC(n2nc(-c3ccc(Oc4ccccc4)cc3)c3c(N)ncnc32)C1 (stereo not drawn) [Compound 8d, 4-(3-(4-Amino-3-(4-phenoxyphenyl)-1H-pyrazolo[3,4-d]pyrimidin-1-yl)piperidin-1-yl)-N-methyl-2-(methylsulfonyl)pyrimidine-5-carboxamide] | 28% | 42% | 42% | -5% | 55% | 55% | 9% | 86% | 86% | -3% | 77% | 77% | -6% | 66% | 66% | 4% | 100% | 100%
CCOC(=O)c1cnc(S(C)(=O)=O)nc1N1CCC[C@@H](n2nc(-c3ccc(Oc4ccccc4)cc3)c3c(N)ncnc32)C1 [Compound 8c, Ethyl (R)-4-(3-(4-Amino-3-(4-phenoxyphenyl)-1H-pyrazolo[3,4-d]pyrimidin-1-yl)piperidin-1-yl)-2-(methylsulfonyl)pyrimidine-5-carboxylate] | 41% | 55% | 55% | -3% | 57% | 57% | 20% | 97% | 97% | -6% | 74% | 74% | 20% | 92% | 92% | -4% | 92% | 92%
Cc1cnc(S(C)(=O)=O)nc1N1CCCC(n2nc(-c3ccc(Oc4ccccc4)cc3)c3c(N)ncnc32)C1 (stereo not drawn) [Compound 8a, 1-(1-(5-Methyl-2-(methylsulfonyl)pyrimidin-4-yl)piperidin-3-yl)-3-(4-phenoxyphenyl)-1H-pyrazolo[3,4-d]pyrimidin-4-amine] | 47% | 61% | 61% | 20% | 80% | 80% | 11% | 88% | 88% | -13% | 67% | 67% | 9% | 81% | 81% | 4% | 100% | 100%
C=CC(=O)N1CCC[C@@H](n2nc(-c3ccc(Oc4ccccc4)cc3)c3c(N)ncnc32)C1 [Compound 1g, Ibrutinib, reference compound] | – | 14% | 14% | – | 60% | 60% | – | 77% | 77% | – | 80% | 80% | – | 72% | 72% | – | 96% | 96%
COC(=O)c1cnc(S(C)(=O)=O)nc1N1CCCC(n2nc(-c3ccc(Oc4ccccc4)cc3)c3c(N)ncnc32)C1 (stereo not drawn) [Compound 8b, Methyl 4-(3-(4-Amino-3-(4-phenoxyphenyl)-1H-pyrazolo[3,4-d]pyrimidin-1-yl)piperidin-1-yl)-2-(methylsulfonyl)pyrimidine-5-carboxylate] | 55% | 69% | 69% | 19% | 79% | 79% | 7% | 84% | 84% | 8% | 88% | 88% | -16% | 56% | 56% | -2% | 94% | 94%
